# Results as given in ChEMBL document CHEMBL2074235, “Transporter-mediated Drug Interactions” (Drug Metabol Pharmacokin, 2002).
# Biological target: T1, Solute carrier family 15 member 1 (Homo sapiens) (UniProt P46059)
# T1 sequence (whole entry): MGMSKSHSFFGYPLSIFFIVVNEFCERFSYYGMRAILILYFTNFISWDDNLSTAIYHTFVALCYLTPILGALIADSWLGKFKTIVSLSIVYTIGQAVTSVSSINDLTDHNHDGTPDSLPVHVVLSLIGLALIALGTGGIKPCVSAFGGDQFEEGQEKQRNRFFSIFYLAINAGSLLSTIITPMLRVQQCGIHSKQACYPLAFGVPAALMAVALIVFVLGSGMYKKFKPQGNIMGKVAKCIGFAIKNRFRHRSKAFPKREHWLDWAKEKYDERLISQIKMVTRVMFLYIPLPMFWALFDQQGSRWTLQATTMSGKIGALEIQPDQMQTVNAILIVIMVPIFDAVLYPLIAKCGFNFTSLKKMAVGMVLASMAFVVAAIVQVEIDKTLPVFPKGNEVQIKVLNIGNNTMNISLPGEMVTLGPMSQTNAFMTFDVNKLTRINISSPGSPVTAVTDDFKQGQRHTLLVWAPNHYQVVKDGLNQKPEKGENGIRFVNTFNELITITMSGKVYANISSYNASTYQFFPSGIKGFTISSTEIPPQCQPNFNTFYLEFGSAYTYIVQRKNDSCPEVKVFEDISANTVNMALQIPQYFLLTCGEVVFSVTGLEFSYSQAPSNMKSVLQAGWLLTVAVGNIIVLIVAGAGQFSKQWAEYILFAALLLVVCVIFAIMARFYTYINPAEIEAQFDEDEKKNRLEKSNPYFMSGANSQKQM
# Assay: TP_TRANSPORTER: uptake in Xenopus laevis oocytes
# Format: functional, cell-based
# Details: Oocyte
row,Structure (SMILES),Activity
1,NCCC(=O)N[C@@H](Cc1c[nH]cn1)C(=O)O,substrate [+]
2,C=CC1=C(C(=O)O)N2C(=O)[C@@H](NC(=O)/C(=N\O)c3csc(N)n3)[C@H]2SC1,substrate [+]
3,C[C@H](N[C@@H](CCc1ccccc1)C(=O)O)C(=O)N1CCC[C@H]1C(=O)O,substrate [+]
4,NCCCC[C@H](N[C@@H](CCc1ccccc1)C(=O)O)C(=O)N1CCC[C@H]1C(=O)O,is not a substrate [-]
5,CCOC(=O)[C@H](CCc1ccccc1)N[C@@H](C)C(=O)N1CCC[C@H]1C(=O)O,substrate [+]
6,CC1(C)S[C@@H]2[C@H](NC(=O)Cc3ccccc3)C(=O)N2[C@H]1C(=O)O,substrate [+]
7,CCOC(=O)[C@H](CCc1ccccc1)N[C@H]1CS[C@H](c2cccs2)CN(CC(=O)O)C1=O,substrate [+]
8,Nc1nc(/C(=C/CC(=O)O)C(=O)N[C@@H]2C(=O)N3C(C(=O)O)=CCS[C@H]23)cs1,substrate [+]
9,CC1=C(C(=O)O)N2C(=O)[C@@H](NC(=O)[C@H](N)c3ccc(O)cc3)[C@H]2SC1,substrate [+]
10,O=C(O)CN1C[C@@H](c2cccs2)SC[C@H](N[C@@H](CCc2ccccc2)C(=O)O)C1=O,substrate [+]
11,O=C(O)CO/N=C(\C(=O)N[C@@H]1C(=O)N2C(C(=O)O)=CCS[C@H]12)c1cscn1,substrate [+]
12,CO/N=C(\C(=O)N[C@@H]1C(=O)N2C(C(=O)O)=CCS[C@H]12)c1csc(N)n1,is not a substrate [-]
13,C[C@@H](O)[C@H]1C(=O)N2C(C(=O)O)=C([C@H]3CCCO3)S[C@H]12,is not a substrate [-]
14,C=CC1=C(C(=O)O)N2C(=O)[C@@H](NC(=O)/C(=N\OCC(=O)O)c3csc(N)n3)[C@H]2SC1,substrate [+]
